These results are taken from patent publication US11401508B2, “Methods for isolating human cardiac ventricular progenitor cells” (Procella Therapeutics AB, priority 2016, dated 2022).

One test deals with T1, Porcn (Homo sapiens, UniProt Q9H237).
T1 sequence (Q9H237 1-461): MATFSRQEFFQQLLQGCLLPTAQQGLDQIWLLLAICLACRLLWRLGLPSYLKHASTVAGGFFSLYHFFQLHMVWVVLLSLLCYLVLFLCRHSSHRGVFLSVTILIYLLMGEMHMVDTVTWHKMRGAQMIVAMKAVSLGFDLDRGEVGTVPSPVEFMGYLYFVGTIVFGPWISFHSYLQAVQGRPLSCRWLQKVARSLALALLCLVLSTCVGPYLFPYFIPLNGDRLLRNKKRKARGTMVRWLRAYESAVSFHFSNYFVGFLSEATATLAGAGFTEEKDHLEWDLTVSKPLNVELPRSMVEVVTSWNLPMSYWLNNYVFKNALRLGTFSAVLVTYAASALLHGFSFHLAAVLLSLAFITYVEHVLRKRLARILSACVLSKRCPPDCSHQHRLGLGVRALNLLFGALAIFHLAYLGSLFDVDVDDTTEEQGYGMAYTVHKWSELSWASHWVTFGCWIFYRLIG
The conditions noted are these: read-out: IC50 (Porcn inhibitor); cited from earlier work.

The next test has as its system hPSCs. Description: Cardiac differentiation of hPSCs, lineage markers by flow cytometry and immunostaining. It counts as cell-based, human. The procedure:
Cells were then cultured in mTeSR1, changed daily.
Data were collected on a FACSCaliber flow cytometer (Beckton Dickinson) and analyzed using FlowJo.

A further test concerns the target GSK-3, β (Homo sapiens, UniProt P49841). As to conditions: read-out: IC50 GSK-3 β; cited from earlier work.
A further test addresses GSK-3 α (Homo sapiens, UniProt P49840). As to conditions: cited from earlier work.
For test [1], the system named is mature human muscle organ. Briefly: Force generation of muscle strips from HVP-derived human muscle organ on electric stimulation. As to conditions: 5-month graft, p<0.05 compared to control. From the text:
Animals were sacrificed and the engrafted kidneys were removed for further analysis. The 5-month human graft was a hemisphere structure with the radius of 0.4 cm (diameter of 0.8 cm). […] In addition, muscle trips taken from our mature human muscle organ generated forces (0.36±0.04 mN) in response to electric stimulation and increased their force generation after treatment with a β-adrenergic agonist isoprenaline (0.51±0.02 mN, p<0.05 compared to control). Taken together, these studies indicate that the HVPs are capable of generating a fully functional, mature human ventricular muscle organ in vivo via a cell autonomous pathway, i.e., without the addition of other cells, genes, matrix proteins, or biomaterials.

GSK-3, β, sequence (P49841 whole entry, species assumed): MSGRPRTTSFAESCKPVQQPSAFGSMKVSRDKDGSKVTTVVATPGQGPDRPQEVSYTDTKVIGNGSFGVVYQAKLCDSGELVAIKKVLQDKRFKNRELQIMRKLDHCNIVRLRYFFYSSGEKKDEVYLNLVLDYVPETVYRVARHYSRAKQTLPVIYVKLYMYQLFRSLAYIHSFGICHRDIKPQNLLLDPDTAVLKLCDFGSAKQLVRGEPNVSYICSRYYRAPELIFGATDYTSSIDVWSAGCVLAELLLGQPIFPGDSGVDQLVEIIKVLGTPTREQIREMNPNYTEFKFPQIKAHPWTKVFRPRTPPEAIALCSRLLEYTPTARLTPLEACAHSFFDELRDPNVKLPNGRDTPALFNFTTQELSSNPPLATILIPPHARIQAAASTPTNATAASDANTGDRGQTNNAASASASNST
GSK-3 α, sequence (P49840 whole entry, species assumed): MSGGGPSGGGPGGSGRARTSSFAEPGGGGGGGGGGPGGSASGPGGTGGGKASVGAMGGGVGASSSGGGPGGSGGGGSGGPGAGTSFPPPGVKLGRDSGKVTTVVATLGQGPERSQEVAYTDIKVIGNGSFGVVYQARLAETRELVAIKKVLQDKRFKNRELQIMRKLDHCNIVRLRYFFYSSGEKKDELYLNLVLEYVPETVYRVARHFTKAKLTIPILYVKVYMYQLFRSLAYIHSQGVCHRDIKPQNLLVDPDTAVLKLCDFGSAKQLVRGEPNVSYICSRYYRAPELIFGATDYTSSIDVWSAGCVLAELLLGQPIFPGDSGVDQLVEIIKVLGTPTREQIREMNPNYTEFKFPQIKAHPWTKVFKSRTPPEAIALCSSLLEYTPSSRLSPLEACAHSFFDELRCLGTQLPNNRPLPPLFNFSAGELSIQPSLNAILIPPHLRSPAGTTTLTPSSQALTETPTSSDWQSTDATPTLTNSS

On to `Cc1cc(-c2ccc(CC(=O)Nc3ccc(-c4cccnc4)cc3)cc2)ccn1` [Wnt-059], for which the IC50 on Porcn was 0.074 nM. The “ventricular progenitor differentiation from mesoderm cells” value with hPSCs (48-hour treatment) is reported as “enhanced ventricular progenitor differentiation”.
Turning to CHIR98014, the IC50 was 0.58 nM on GSK-3, β and 0.65 nM on GSK-3 α. Moreover, the “hPSCs expressing the mesoderm marker Brachyury” value in the test with hPSCs (after 24 hour treatment) is listed as “more than 99%”. Besides, the “differentiated cells expressing Mesp1 (cardiac mesoderm)” value in the test on hPSCs (three days after treatment) is recorded as “more than 95%”.
Turning to `Cc1ccc2nc(NC(=O)CSc3nc4c(c(=O)n3-c3ccccc3)SCC4)sc2c1` [IWP2], the IC50 on Porcn is 27 nM.
`CC(C)NCC(O)c1ccc(O)c(O)c1` (centres unmarked) [isoprenaline]: the “force generated by muscle strips after treatment with β-adrenergic agonist” value in test [1] was found to be 0.51±0.02 mN.
